Experimental data reported in article PMC4710522, “A Novel Triazolopyridine-Based Spleen Tyrosine Kinase Inhibitor That Arrests Joint Inflammation” (PLoS ONE, 2016).

Tests used:
Assay in all cases: SelectScreen kinase assay
Assay type in all cases: biochemical
PKC-theta_h = molecular target: T1, PKC-theta_h (Homo sapiens, UniProt Q04759); settings: KM ATP, read-out: % control
T1 construct: purchased Life Technologies (Invitrogen) SelectScreen, Z'-LYTE / Adapta
How it was run: (§1)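 Z'-Lyte or Adapta format; compound fixed at 3 µM; ATP at KM, 10 µM or 100 µM as indicated; read-out % control relative to uninhibited DMSO wells.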

SRPK2_h = molecular target: T2, SRPK2_h (Homo sapiens, UniProt P78362); settings: KM ATP, read-out: % control
T2 construct: purchased Life Technologies (Invitrogen) SelectScreen, Z'-LYTE / Adapta
T2 sequence (P78362 whole entry): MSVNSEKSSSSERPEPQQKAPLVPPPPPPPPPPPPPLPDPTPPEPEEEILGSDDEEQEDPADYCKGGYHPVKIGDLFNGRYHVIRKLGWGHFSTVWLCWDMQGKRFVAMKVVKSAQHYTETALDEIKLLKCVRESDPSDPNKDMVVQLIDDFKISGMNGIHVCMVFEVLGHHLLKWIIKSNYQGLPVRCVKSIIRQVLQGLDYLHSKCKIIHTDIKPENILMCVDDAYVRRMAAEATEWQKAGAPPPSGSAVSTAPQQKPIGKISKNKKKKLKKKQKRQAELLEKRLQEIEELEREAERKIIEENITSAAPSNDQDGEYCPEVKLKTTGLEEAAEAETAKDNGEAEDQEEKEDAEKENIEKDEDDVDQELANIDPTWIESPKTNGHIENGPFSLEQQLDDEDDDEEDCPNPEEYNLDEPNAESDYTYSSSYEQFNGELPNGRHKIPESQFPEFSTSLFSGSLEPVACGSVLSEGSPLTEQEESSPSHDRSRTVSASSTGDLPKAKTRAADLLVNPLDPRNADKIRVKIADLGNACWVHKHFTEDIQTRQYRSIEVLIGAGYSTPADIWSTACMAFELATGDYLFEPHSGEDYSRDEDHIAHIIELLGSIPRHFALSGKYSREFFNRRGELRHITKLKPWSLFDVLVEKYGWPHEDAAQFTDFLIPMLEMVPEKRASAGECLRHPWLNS
How it was run: as §1

SRMS_h = molecular target: T3, SRMS_h (Homo sapiens, UniProt Q9H3Y6); settings: KM ATP, read-out: % control
T3 construct: purchased Life Technologies (Invitrogen) SelectScreen, Z'-LYTE / Adapta
How it was run: as §1

Met_h = molecular target: T4, Met_h (Homo sapiens, UniProt P08581); settings: KM ATP, read-out: % control
T4 construct: purchased Life Technologies (Invitrogen) SelectScreen, Z'-LYTE / Adapta
How it was run: as §1

CDK7_h = molecular target: T5, CDK7_h (Homo sapiens, UniProt P50613); settings: KM ATP, read-out: % control
T5 construct: purchased Life Technologies (Invitrogen) SelectScreen, Z'-LYTE / Adapta
How it was run: as §1

CDK9_h = molecular target: T6, CDK9_h (Homo sapiens, UniProt P50750); settings: KM ATP, read-out: % control
T6 construct: purchased Life Technologies (Invitrogen) SelectScreen, Z'-LYTE / Adapta
How it was run: as §1

EGFR_T790M_L858R_h = molecular target: T7, EGFR_T790M_L858R_h (Homo sapiens, UniProt P00533, L858R/T790M); settings: KM ATP, read-out: % control
T7 construct: purchased Life Technologies (Invitrogen) SelectScreen, Z'-LYTE / Adapta
How it was run: as §1

EphA1_h = molecular target: T8, EphA1_h (Homo sapiens, UniProt P21709); settings: KM ATP, read-out: % control
T8 construct: purchased Life Technologies (Invitrogen) SelectScreen, Z'-LYTE / Adapta
How it was run: as §1

MRCK-alpha_h = molecular target: T9, MRCK-alpha_h (Homo sapiens, UniProt Q5VT25); settings: KM ATP, read-out: % control
T9 construct: purchased Life Technologies (Invitrogen) SelectScreen, Z'-LYTE / Adapta
How it was run: as §1

CaMKI-delta_h = molecular target: T10, CaMKI-delta_h (Homo sapiens, UniProt Q8IU85); settings: KM ATP, read-out: % control
T10 construct: purchased Life Technologies (Invitrogen) SelectScreen, Z'-LYTE / Adapta
How it was run: as §1

CaMKII-alpha_h = molecular target: T11, CaMKII-alpha_h (Homo sapiens, UniProt Q9UQM7); settings: KM ATP, read-out: % control
T11 construct: purchased Life Technologies (Invitrogen) SelectScreen, Z'-LYTE / Adapta
How it was run: as §1

PTK5_h = molecular target: T12, PTK5_h (Homo sapiens, UniProt P42685); settings: KM ATP, read-out: % control
T12 construct: purchased Life Technologies (Invitrogen) SelectScreen, Z'-LYTE / Adapta
How it was run: as §1

CLK2_h = molecular target: T13, CLK2_h (Homo sapiens, UniProt P49760); settings: KM ATP, read-out: % control
T13 construct: purchased Life Technologies (Invitrogen) SelectScreen, Z'-LYTE / Adapta
How it was run: as §1

Fes_h = molecular target: T14, Fes_h (Homo sapiens, UniProt P07332); settings: KM ATP, read-out: % control
T14 construct: purchased Life Technologies (Invitrogen) SelectScreen, Z'-LYTE / Adapta
How it was run: as §1

Itk_h = molecular target: T15, Itk_h (Homo sapiens, UniProt Q08881); settings: KM ATP, read-out: % control
T15 construct: purchased Life Technologies (Invitrogen) SelectScreen, Z'-LYTE / Adapta
How it was run: as §1

CDK5_p35_h = molecular target: T16, CDK5_p35_h (Homo sapiens, UniProt Q00535); settings: KM ATP, read-out: % control
T16 construct: purchased Life Technologies (Invitrogen) SelectScreen, Z'-LYTE / Adapta
How it was run: as §1

ROCK-I_h = molecular target: T17, ROCK-I_h (Homo sapiens, UniProt Q13464); settings: KM ATP, read-out: % control
T17 construct: purchased Life Technologies (Invitrogen) SelectScreen, Z'-LYTE / Adapta
How it was run: as §1

MINK_h = molecular target: T18, MINK_h (Homo sapiens, UniProt Q8N4C8); settings: KM ATP, read-out: % control
T18 construct: purchased Life Technologies (Invitrogen) SelectScreen, Z'-LYTE / Adapta
T18 sequence (Q8N4C8 whole entry): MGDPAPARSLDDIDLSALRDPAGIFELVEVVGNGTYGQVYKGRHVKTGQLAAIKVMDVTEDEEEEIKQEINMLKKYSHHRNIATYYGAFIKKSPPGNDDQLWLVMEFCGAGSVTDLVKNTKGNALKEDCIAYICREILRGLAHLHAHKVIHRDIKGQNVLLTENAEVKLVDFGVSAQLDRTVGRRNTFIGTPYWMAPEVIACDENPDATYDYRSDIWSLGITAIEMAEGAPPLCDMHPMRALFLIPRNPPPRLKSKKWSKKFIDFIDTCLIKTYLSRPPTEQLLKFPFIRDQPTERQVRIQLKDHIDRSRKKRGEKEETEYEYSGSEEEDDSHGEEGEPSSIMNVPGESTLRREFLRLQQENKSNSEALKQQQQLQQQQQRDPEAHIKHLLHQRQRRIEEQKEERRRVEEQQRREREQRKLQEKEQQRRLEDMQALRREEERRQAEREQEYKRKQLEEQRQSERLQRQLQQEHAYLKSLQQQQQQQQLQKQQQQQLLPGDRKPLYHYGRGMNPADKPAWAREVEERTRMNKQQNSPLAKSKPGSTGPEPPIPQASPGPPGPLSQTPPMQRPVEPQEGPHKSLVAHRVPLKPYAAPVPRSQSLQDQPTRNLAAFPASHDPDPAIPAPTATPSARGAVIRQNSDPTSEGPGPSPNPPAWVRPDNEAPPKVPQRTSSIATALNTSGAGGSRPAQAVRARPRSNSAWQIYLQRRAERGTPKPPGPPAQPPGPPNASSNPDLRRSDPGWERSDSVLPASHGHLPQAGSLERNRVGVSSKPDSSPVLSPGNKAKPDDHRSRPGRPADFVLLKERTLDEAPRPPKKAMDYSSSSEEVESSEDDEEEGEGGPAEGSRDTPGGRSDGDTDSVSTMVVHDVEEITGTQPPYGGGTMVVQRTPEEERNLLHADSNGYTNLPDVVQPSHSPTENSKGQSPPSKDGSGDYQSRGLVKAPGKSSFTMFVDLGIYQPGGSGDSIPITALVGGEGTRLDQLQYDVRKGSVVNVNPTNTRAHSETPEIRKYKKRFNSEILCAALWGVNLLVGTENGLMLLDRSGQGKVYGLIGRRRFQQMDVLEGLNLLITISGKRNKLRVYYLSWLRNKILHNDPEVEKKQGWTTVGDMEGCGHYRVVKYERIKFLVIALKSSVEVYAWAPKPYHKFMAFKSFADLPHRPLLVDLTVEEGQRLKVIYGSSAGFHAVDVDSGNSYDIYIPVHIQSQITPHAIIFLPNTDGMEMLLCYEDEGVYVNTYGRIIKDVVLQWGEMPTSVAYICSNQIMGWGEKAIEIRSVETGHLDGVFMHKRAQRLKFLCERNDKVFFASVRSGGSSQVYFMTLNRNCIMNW
How it was run: as §1

Ros_h = molecular target: T19, Ros_h (Homo sapiens, UniProt P08922); settings: KM ATP, read-out: % control
T19 construct: purchased Life Technologies (Invitrogen) SelectScreen, Z'-LYTE / Adapta
How it was run: as §1

Ltk_h = molecular target: T20, Ltk_h (Homo sapiens, UniProt P29376); settings: KM ATP, read-out: % control
T20 construct: purchased Life Technologies (Invitrogen) SelectScreen, Z'-LYTE / Adapta
How it was run: as §1

NEK1_h = molecular target: T21, NEK1_h (Homo sapiens, UniProt Q96PY6); settings: KM ATP, read-out: % control
T21 construct: purchased Life Technologies (Invitrogen) SelectScreen, Z'-LYTE / Adapta
How it was run: as §1

Bmx_h = molecular target: T22, Bmx_h (Homo sapiens, UniProt P51813); settings: KM ATP, read-out: % control
T22 construct: purchased Life Technologies (Invitrogen) SelectScreen, Z'-LYTE / Adapta
How it was run: as §1

Axl_h = molecular target: T23, Axl_h (Homo sapiens, UniProt P30530); settings: KM ATP, read-out: % control
T23 construct: purchased Life Technologies (Invitrogen) SelectScreen, Z'-LYTE / Adapta
T23 sequence (P30530 26-894): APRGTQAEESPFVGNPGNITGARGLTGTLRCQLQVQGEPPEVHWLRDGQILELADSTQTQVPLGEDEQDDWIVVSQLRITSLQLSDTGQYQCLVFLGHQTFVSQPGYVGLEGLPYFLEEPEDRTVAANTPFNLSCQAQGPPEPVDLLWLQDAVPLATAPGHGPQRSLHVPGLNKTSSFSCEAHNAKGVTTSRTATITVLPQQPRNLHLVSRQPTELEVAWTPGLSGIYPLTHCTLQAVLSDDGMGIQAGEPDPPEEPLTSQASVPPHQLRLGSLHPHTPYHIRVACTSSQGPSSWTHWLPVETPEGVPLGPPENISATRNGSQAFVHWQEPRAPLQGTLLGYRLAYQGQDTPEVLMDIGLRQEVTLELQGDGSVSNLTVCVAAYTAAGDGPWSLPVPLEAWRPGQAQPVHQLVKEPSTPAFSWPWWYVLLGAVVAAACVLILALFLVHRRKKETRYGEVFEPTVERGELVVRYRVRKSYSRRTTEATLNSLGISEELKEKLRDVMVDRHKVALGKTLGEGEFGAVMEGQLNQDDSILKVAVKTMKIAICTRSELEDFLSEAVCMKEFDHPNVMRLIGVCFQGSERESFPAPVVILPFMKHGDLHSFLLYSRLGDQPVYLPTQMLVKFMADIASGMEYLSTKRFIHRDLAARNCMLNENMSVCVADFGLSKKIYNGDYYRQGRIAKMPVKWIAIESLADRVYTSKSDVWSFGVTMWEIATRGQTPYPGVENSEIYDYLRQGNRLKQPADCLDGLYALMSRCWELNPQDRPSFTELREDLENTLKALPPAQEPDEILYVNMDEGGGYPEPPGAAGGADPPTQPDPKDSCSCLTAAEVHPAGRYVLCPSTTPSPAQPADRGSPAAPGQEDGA
How it was run: as §1

PTK2B_h = molecular target: T24, PTK2B_h (Homo sapiens, UniProt Q14289); settings: KM ATP, read-out: % control
T24 construct: purchased Life Technologies (Invitrogen) SelectScreen, Z'-LYTE / Adapta
How it was run: as §1

DAPK1_h = molecular target: T25, DAPK1_h (Homo sapiens, UniProt P53355); settings: KM ATP, read-out: % control
T25 construct: purchased Life Technologies (Invitrogen) SelectScreen, Z'-LYTE / Adapta
T25 sequence (P53355 whole entry): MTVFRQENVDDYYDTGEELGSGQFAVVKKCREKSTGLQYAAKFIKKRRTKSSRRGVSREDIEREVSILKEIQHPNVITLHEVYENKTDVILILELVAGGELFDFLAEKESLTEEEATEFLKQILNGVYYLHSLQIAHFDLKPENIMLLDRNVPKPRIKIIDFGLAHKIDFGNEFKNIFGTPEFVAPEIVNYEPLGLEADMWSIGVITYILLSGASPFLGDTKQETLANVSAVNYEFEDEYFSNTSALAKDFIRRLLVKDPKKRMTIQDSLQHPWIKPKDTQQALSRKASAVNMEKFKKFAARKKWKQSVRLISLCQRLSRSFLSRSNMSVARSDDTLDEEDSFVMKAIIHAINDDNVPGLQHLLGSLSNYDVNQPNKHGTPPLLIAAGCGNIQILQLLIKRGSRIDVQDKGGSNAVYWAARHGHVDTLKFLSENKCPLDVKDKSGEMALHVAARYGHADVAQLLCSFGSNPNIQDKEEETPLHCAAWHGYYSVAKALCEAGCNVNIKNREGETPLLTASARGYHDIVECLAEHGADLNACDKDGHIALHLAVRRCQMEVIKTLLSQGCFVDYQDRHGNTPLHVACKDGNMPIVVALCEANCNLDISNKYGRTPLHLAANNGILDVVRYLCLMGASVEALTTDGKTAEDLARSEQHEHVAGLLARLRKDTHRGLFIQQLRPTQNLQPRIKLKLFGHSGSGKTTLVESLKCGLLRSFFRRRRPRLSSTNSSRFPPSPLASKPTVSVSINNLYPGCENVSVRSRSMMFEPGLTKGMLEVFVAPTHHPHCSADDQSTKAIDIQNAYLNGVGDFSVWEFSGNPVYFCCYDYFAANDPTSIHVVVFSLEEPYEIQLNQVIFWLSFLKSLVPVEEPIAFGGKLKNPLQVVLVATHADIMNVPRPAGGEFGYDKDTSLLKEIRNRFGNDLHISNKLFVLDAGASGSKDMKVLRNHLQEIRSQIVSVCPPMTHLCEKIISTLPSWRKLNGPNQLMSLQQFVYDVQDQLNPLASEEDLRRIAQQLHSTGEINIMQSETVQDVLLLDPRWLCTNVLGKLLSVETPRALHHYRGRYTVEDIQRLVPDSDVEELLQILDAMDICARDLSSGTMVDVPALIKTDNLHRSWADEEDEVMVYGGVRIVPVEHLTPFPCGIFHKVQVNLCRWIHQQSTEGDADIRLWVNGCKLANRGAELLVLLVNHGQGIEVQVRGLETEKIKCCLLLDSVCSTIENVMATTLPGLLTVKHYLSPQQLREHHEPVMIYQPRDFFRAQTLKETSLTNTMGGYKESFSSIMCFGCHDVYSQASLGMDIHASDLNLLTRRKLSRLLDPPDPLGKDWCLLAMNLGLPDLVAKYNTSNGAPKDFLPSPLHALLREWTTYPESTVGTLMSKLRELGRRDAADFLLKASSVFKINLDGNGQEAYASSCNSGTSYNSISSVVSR
How it was run: as §1

Aurora-C_h = molecular target: T26, Aurora-C_h (Homo sapiens, UniProt Q9UQB9); settings: KM ATP, read-out: % control
T26 construct: purchased Life Technologies (Invitrogen) SelectScreen, Z'-LYTE / Adapta
T26 sequence (Q9UQB9 whole entry): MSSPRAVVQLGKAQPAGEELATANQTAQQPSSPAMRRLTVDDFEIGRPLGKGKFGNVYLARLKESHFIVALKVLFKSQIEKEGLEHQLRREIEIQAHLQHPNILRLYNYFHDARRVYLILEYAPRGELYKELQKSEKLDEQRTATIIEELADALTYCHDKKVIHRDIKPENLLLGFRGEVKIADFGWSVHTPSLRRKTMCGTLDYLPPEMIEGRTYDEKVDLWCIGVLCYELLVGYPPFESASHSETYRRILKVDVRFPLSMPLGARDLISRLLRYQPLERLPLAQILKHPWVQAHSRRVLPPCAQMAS
How it was run: as §1

p38-beta_h = molecular target: T27, p38-beta_h (Homo sapiens, UniProt Q15759); settings: KM ATP, read-out: % control
T27 construct: purchased Life Technologies (Invitrogen) SelectScreen, Z'-LYTE / Adapta
How it was run: as §1

JNK1-alpha1_h = molecular target: T28, JNK1-alpha1_h (Homo sapiens, UniProt P45983); settings: 100 µM ATP, read-out: % control
T28 construct: purchased Life Technologies (Invitrogen) SelectScreen, Z'-LYTE / Adapta
How it was run: as §1

Abl_G250E_h = molecular target: T29, Abl_G250E_h (Homo sapiens, UniProt P00519, G250E); settings: KM ATP, read-out: % control
T29 construct: purchased Life Technologies (Invitrogen) SelectScreen, Z'-LYTE / Adapta
How it was run: as §1

Aurora-A_h = molecular target: T30, Aurora-A_h (Homo sapiens, UniProt O14965); settings: KM ATP, read-out: % control
T30 construct: purchased Life Technologies (Invitrogen) SelectScreen, Z'-LYTE / Adapta
T30 sequence (O14965 whole entry): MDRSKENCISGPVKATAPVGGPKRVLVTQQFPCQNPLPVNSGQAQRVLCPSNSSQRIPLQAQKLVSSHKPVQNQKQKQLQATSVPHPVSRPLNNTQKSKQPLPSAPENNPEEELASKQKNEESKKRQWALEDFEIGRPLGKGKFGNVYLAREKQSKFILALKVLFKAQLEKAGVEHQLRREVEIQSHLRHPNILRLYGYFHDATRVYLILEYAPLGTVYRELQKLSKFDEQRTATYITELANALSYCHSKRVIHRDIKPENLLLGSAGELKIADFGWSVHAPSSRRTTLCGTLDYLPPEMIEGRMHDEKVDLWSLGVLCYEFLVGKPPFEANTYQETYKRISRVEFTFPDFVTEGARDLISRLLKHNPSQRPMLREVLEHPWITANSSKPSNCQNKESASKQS
How it was run: as §1

TrkC_h = molecular target: T31, TrkC_h (Homo sapiens, UniProt Q16288); settings: KM ATP, read-out: % control
T31 construct: purchased Life Technologies (Invitrogen) SelectScreen, Z'-LYTE / Adapta
How it was run: as §1

EGFR_T790M_h = molecular target: T32, EGFR_T790M_h (Homo sapiens, UniProt P00533, T790M); settings: KM ATP, read-out: % control
T32 construct: purchased Life Technologies (Invitrogen) SelectScreen, Z'-LYTE / Adapta
How it was run: as §1

EGFR_h = molecular target: T33, EGFR_h (Homo sapiens, UniProt P00533); settings: KM ATP, read-out: % control
T33 construct: purchased Life Technologies (Invitrogen) SelectScreen, Z'-LYTE / Adapta
How it was run: as §1

MST2_h = molecular target: T34, MST2_h (Homo sapiens, UniProt Q13188); settings: KM ATP, read-out: % control
T34 construct: purchased Life Technologies (Invitrogen) SelectScreen, Z'-LYTE / Adapta
How it was run: as §1

c1cc(CC2CCOCC2)n2nc(Nc3ccc4c(NC5CCOCC5)n[nH]c4c3)nc2c1 [CC-509, [3-(2H-3,4,5,6-tetrahydropyran-4-ylamino)(1H-indazol-6-yl)][5-(2H-3,4,5,6-tetrahydropyran-4-ylmethyl)(2H-1,2,4-triazolo[1,5-a]pyridin-2-yl)]amine]
remaining activity at 3 µM (PKC-theta_h): 78% | remaining activity at 3 µM (SRPK2_h): 111% | remaining activity at 3 µM (SRMS_h): 90% | remaining activity at 3 µM (Met_h): 66% | remaining activity at 3 µM (CDK7_h): 94% | remaining activity at 3 µM (CDK9_h): 31% | remaining activity at 3 µM (EGFR_T790M_L858R_h): 52% | remaining activity at 3 µM (EphA1_h): 21% | remaining activity at 3 µM (MRCK-alpha_h): 91% | remaining activity at 3 µM (CaMKI-delta_h): 86% | remaining activity at 3 µM (CaMKII-alpha_h): 80% | remaining activity at 3 µM (PTK5_h): 86% | remaining activity at 3 µM (CLK2_h): 50% | remaining activity at 3 µM (Fes_h): 53% | remaining activity at 3 µM (Itk_h): 91% | remaining activity at 3 µM (CDK5_p35_h): 77% | remaining activity at 3 µM (ROCK-I_h): 70% | remaining activity at 3 µM (MINK_h): 55% | remaining activity at 3 µM (Ros_h): 74% | remaining activity at 3 µM (Ltk_h): 71% | remaining activity at 3 µM (NEK1_h): 73% | remaining activity at 3 µM (Bmx_h): 52% | remaining activity at 3 µM (Axl_h): 70% | remaining activity at 3 µM (PTK2B_h): 50% | remaining activity at 3 µM (DAPK1_h): 104% | remaining activity at 3 µM (Aurora-C_h): 18% | remaining activity at 3 µM (p38-beta_h): 84% | remaining activity at 3 µM (JNK1-alpha1_h): 88% | remaining activity at 3 µM (Abl_G250E_h): 29% | remaining activity at 3 µM (Aurora-A_h): 6% | remaining activity at 3 µM (TrkC_h): 25% | remaining activity at 3 µM (EGFR_T790M_h): 54% | remaining activity at 3 µM (EGFR_h): 97% | remaining activity at 3 µM (MST2_h): 46%
